PMC6032016, “Synthesis, biological evaluation, and molecular modelling studies of potent human neutrophil elastase (HNE) inhibitors” (Journal of Enzyme Inhibition and Medicinal Chemistry, 2018)
Values joined by “and” are separate entries in the source; they are usually repeats but may differ in a detail not shown here. Identical values can stand only once.

Legend:
[1] = target: T1, HNE (human neutrophil elastase) (Homo sapiens, UniProt P08246); test: HNE inhibition assay (fluorogenic substrate cleavage); type: biochemical; settings: for HNE inhibitory activity, result in words: highest concentration tested 50 µM; for IC50: mean ± SD of three independent experiments, NA: no inhibitory activity at the highest concentration tested (50 µM)
T1 construct: purchased Calbiochem
T1 sequence (P08246 30-267): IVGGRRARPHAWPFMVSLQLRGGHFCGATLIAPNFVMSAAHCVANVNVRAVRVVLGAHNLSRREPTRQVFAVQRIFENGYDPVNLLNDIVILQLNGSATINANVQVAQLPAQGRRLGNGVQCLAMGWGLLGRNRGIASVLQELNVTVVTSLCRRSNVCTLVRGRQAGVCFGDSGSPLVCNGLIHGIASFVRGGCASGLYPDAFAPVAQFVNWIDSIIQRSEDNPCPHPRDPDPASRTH
Experimental: Compounds were dissolved in 100% DMSO at 5 mM stock concentrations. […] The HNE inhibition assay was performed in black flat-bottom 96-well microtiter plates. Briefly, a buffer solution containing 200 mM Tris–HCl, pH 7.5, 0.01% bovine serum albumin, and 0.05% Tween-20 and 20 mU/mL of HNE (Calbiochem) was added to wells containing different concentrations of each compound. The reaction was initiated by addition of 25 µM elastase substrate (N-methylsuccinyl-Ala-Ala-Pro-Val-7-amino-4-methylcoumarin, Calbiochem) in a final reaction volume of 100 µl/well. Kinetic measurements were obtained every 30 s for 10 min at 25 °C using a Fluoroskan Ascent FL fluorescence microplate reader (Thermo Electron, MA) with excitation and emission wavelengths set at 355 and 460 nm, respectively. For all compounds tested, the concentration of inhibitor that caused 50% inhibition of the enzymatic reaction (IC50) was calculated by plotting % inhibition versus logarithm of inhibitor concentration (at least six points). The data are presented as the mean values of at least three independent experiments with relative standard deviations of <15%.

HNE = target: T2, HNE (Homo sapiens, UniProt P08246); test: Reversibility of HNE inhibition over extended periods of time; type: biochemical; settings: 8 µM compound
T2 construct: purchased Calbiochem
T2 sequence (P08246 30-267): T1 sequence (P08246 30-267)
Experimental: The inhibition was maximal for up to 60 min with compound 7e and >120 min for the other tested compounds (4a, 4b, and 7a). However, inhibition by the compounds was eventually reversed, and full recovery of HNE activity was observed by 4 h after treatment with 8 µM of the compound (e.g. see Figure 6).
Figure 6. […] HNE was incubated with the indicated compounds (8 µM), and kinetic curves monitoring substrate cleavage catalysed by HNE over time are shown. Representative curves are from two independent experiments.

[2] = Analysis of compound stability: spontaneous hydrolysis in aqueous buffer; type: physicochemical; settings: 25 °C, 0.05 M phosphate buffer, pH 7.3; read-out: t1/2 for spontaneous hydrolysis (converted)
Experimental: Spontaneous hydrolysis of selected derivatives was evaluated at 25 °C in 0.05 M phosphate buffer, pH 7.3. Kinetics of hydrolysis were monitored by measuring changes in the absorbance spectra over time using a SpectraMax Plus microplate spectrophotometer (Molecular Devices, Sunnyvale, CA). Absorbance (At) at the characteristic absorption maxima of each compound was measured at the indicated times until no further absorbance decreases occurred (A∞)[52]. Using these measurements, we created semilogarithmic plots of log(At–A∞) versus time, and k′ values were determined from the slopes of these plots. Half-conversion times were calculated using t1/2 = 0.693/k′, as described previously[36]^,[37].

| melting point | IC50 [1] | Structure (SMILES) | other results |
| --- | --- | --- | --- |
| – | – | Cc1c(-c2ccccc2)c(=O)on1S(=O)(=O)c1ccc(NC(=O)C(C)(C)C)cc1 [Compound 3c, N-(4-((3-methyl-5-oxo-4-phenylisoxazol-2(5H)-yl)sulfonyl)phenyl)pivalamide] | HNE inhibitory activity, result in words [1]: completely inactive |
| 177 to 180 °C (dec.) | – | Cc1cccc(C(=O)n2oc(=O)cc2-c2ccc([N+](=O)[O-])cc2)c1 [Compound 4s, 2-(3-Methylbenzoyl)-3-(4-nitrophenyl)isoxazol-5(2H)-one] | HNE inhibitory activity, result in words [1]: completely inactive |
| 108 to 110 °C | 0.07 ± 0.02 µM | Cc1cccc(C(=O)n2oc(=O)c(-c3ccc(C#N)cc3)c2C)c1 [Compound 7b, 4-(3-Methyl-2-(3-methylbenzoyl)-5-oxo-2,5-dihydroisoxazol-4-yl)benzonitrile] | time after which HNE inhibition was reversed (HNE): ~30 min |
| – | 1.1 ± 0.14 µM | Cc1c(-c2ccccc2)n(C(=O)C2CC2)oc1=O [Compound 4p, 2-(Cyclopropanecarbonyl)-4-methyl-3-phenylisoxazol-5(2H)-one] | – |
| – | – | Cc1cccc(Cn2oc(=O)c(-c3ccccc3)c2C)c1 [Compound 2, 3-Methyl-2-(3-methylbenzyl)-4-phenylisoxazol-5(2H)-one] | HNE inhibitory activity, result in words [1]: completely inactive |
| – | 28.6 ± 3.3 µM | CC(=O)Nc1ccc(-c2cc(=O)on2C(=O)c2cccc(C)c2)cc1 [Compound 4u, N-(4-(2-(3-methylbenzoyl)-5-oxo-2,5-dihydroisoxazol-3-yl)phenyl)acetamide] | – |
| 96 to 97 °C | 0.2 ± 0.027 µM | Cc1c(-c2ccccc2)c(=O)on1C(=O)c1cccc(C(F)(F)F)c1 [Compound 4e, 3-Methyl-4-phenyl-2-(3-(trifluoromethyl)benzoyl)isoxazol-5(2H)-one] | – |
| 83 to 86 °C | 0.059 ± 0.018 µM | Cc1c(-c2ccccc2)c(=O)on1C(=O)C1CC1 [Compound 4b, 2-(Cyclopropanecarbonyl)-3-methyl-4-phenylisoxazol-5(2H)-one] | time for which HNE inhibition was maximal (HNE): > 120 min; half-life [2]: 8.3 h |
| 118 to 119 °C | 6.3 ± 1.4 µM | Cc1c(-c2ccccc2)c(=O)on1C(=O)c1cccc(C#N)c1 [Compound 4g, 3-(3-Methyl-5-oxo-4-phenyl-2,5-dihydroisoxazole-2-carbonyl)benzonitrile] | – |
| 132 to 134 °C | 8.5 ± 2.1 µM | Cc1c(-c2ccccc2)c(=O)on1C(=O)c1ccc(NC(=O)C(C)(C)C)cc1 [Compound 4i, N-(4-(3-methyl-5-oxo-4-phenyl-2,5-dihydroisoxazole-2-carbonyl)phenyl)pivalamide] | – |
| – | 48.7 ± 3.3 µM | Cc1cccc(C(=O)n2oc(=O)cc2-c2ccccc2)c1 [Compound 4q, 2-(3-Methylbenzoyl)-3-phenylisoxazol-5(2H)-one] | – |
| 116 to 119 °C | 0.638 ± 0.121 µM | Cc1cccc(C(=O)n2oc(=O)c3ccccc32)c1 [Compound 10c, 1-(3-Methylbenzoyl)benzo[c]isoxazol-3(1H)-one] | – |
| 100 to 103 °C | 17.2 ± 2.3 µM | O=C(C1CC1)n1oc(=O)c(-c2ccccc2)c1-c1ccccc1 [Compound 4n, 2-(Cyclopropanecarbonyl)-3,4-diphenylisoxazol-5(2H)-one] | – |
| – | 0.02 ± 0.009 µM | Cc1ccc(-c2c(C)n(C(=O)c3cccc(C)c3)oc2=O)cc1 [Compound 7a, 3-Methyl-2-(3-methylbenzoyl)-4-(p-tolyl)isoxazol-5(2H)-one] | time for which HNE inhibition was maximal (HNE): > 120 min; half-life [2]: 7.7 h |
| 99 to 100 °C | 0.35 ± 0.036 µM | Cc1ccccc1C(=O)n1oc(=O)c(-c2ccccc2)c1C [Compound 4d, 3-Methyl-2-(2-methylbenzoyl)-4-phenylisoxazol-5(2H)-one] | – |
| 134 to 136 °C | 0.23 ± 0.034 µM | Cc1ccc(C(=O)n2oc(=O)c(-c3ccccc3)c2C)cc1 [Compound 4c, 3-Methyl-2-(4-methylbenzoyl)-4-phenylisoxazol-5(2H)-one] | – |

| melting point | IC50 [1] | Structure (SMILES) | other results |
| --- | --- | --- | --- |
| 50 to 51 °C | – | Cc1c(-c2ccccc2)c(=O)on1S(=O)(=O)c1ccc(O)cc1 [Compound 3a, 2-((4-Hydroxyphenyl)sulfonyl)-3-methyl-4-phenylisoxazol-5(2H)-one] | HNE inhibitory activity, result in words [1]: inactivity |
| – | 0.059 ± 0.02 µM | Cc1c(-c2ccccc2)c(=O)on1S(=O)(=O)c1ccc(OC(=O)C(C)(C)C)cc1 [Compound 3b, 4-((3-Methyl-5-oxo-4-phenylisoxazol-2(5H)-yl)sulfonyl)phenyl pivalate] | – |
| 185 to 186 °C | 29.6 ± 7.2 µM | Cc1c(-c2ccccc2)c(=O)on1C(=O)c1cccc(S(C)(=O)=O)c1 [Compound 4f, 3-Methyl-2-(3-(methylsulfonyl)benzoyl)-4-phenylisoxazol-5(2H)-one] | – |
| – | 12.7 ± 2.7 µM | O=C(C1CC1)n1oc(=O)cc1-c1ccccc1 [Compound 4r, 2-(Cyclopropanecarbonyl)-3-phenylisoxazol-5(2H)-one] | – |
| – | – | CCCCC(=O)n1oc(=O)c2ccccc21 [Compound 10b, 1-Pentanoylbenzo[c]isoxazol-3(1H)-one] | HNE inhibitory activity, result in words [1]: inactive |
| – | – | O=C(C1CC1)n1oc(=O)cc1-c1ccc([N+](=O)[O-])cc1 [Compound 4t, 2-(Cyclopropanecarbonyl)-3-(4-nitrophenyl)isoxazol-5(2H)-one] | HNE inhibitory activity, result in words [1]: completely inactive |
| 152 to 154 °C | 0.21 ± 0.04 µM | Cc1cccc(C(=O)n2oc(=O)c(-c3ccc([N+](=O)[O-])cc3)c2C)c1 [Compound 7c, 3-Methyl-2-(3-methylbenzoyl)-4-(4-nitrophenyl)isoxazol-5(2H)-one] | – |
| 160 to 163 °C | 10.1 ± 1.3 µM | Cc1cccc(C(=O)n2oc(=O)c(-c3ccccc3)c2-c2ccccc2)c1 [Compound 4m, 2-(3-Methylbenzoyl)-3,4-diphenylisoxazol-5(2H)-one] | – |
| – | 10 µM and 10.2 µM | Cc1ccc(-c2c(C)noc2OC(=O)c2cccc(C)c2)cc1 [Compound 8a, 3-Methyl-4-(p-tolyl)isoxazol-5-yl 3-methylbenzoate] | half-life [2]: 5.3 h |
| – | 13.6 ± 2.4 µM | Cc1cccc(C(=O)n2oc(=O)c(C)c2-c2ccccc2)c1 [Compound 4o, 4-Methyl-2-(3-methylbenzoyl)-3-phenylisoxazol-5(2H)-one] | – |
| 80 to 82 °C | 0.62 ± 0.21 µM | Cc1cccc(C(=O)Oc2onc(C)c2-c2ccc(NC(=O)C3CC3)cc2)c1 [Compound 8e, 4-(4-(Ciclopropanecarboxamido)phenyl)-3-methylisoxazol-5-yl3-me-thylbenzoate] | half-life [2]: 5.6 h |
| – | 25.1 ± 3.6 µM | CCC(=O)n1oc(=O)c2ccccc21 [Compound 10a, 1-Propionylbenzo[c]isoxazol-3(1H)-one] | – |
| 130 to 132 °C | 0.48 ± 0.13 µM | Cc1c(-c2ccccc2)c(=O)on1C(=O)c1ccc(OC(=O)C(C)(C)C)cc1 [Compound 4l, 4-(3-Methyl-5-oxo-4-phenyl-2,5-dihydroisoxazole-2-carbonyl)phenyl pivalate] | – |
| 98 to 100 °C | 0.42 ± 0.13 µM | Cc1cccc(C(=O)Oc2onc(C)c2-c2ccc(C#N)cc2)c1 [Compound 8b, 4-(4-Cyanophenyl)-3-methylisoxazol-5-yl 3-methylbenzoate] | – |
| 178 to 180 °C (dec.) | 11.4 ± 1.9 µM | Cc1c(-c2ccccc2)c(=O)on1C(=O)c1ccc(C#N)cc1 [Compound 4h, 4-(3-Methyl-5-oxo-4-phenyl-2,5-dihydroisoxazole-2-carbonyl)benzonitrile] | – |
